Experimental data: BindingDB's records for patent US11839613 (Idorsia Pharmaceuticals, 2023)

Columns and labels:
[1] = target: Prostaglandin E2 receptor EP2 subtype (Homo sapiens, UniProt P43116); assay: hEP2 cAMP Assay
Description: Cells are counted washed and resuspended in assay buffer (AB; HBSS, 20 mM HEPES, 0.2% BSA; 2 mM IBMX). […] Plate is pre-incubated 45 minutes at RT. […] Plate is incubated 30 minutes at RT.

[2] = target: Prostaglandin E2 receptor EP4 subtype (Homo sapiens, UniProt P35408); assay: hEP4 cAMP Assay
Sequence of Prostaglandin E2 receptor EP4 subtype (P35408 whole entry): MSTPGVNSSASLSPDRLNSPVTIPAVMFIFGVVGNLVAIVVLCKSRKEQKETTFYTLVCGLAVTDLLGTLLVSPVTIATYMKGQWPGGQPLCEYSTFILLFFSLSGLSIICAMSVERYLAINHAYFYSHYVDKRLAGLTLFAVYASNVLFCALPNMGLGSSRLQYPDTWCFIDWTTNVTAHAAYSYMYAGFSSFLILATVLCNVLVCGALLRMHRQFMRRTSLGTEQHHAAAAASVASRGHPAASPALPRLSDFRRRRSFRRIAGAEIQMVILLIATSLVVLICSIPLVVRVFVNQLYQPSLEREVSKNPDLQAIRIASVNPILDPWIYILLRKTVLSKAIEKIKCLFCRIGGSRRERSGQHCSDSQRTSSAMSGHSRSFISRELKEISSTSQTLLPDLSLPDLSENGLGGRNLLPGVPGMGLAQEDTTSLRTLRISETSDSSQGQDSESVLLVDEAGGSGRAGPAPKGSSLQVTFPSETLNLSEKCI
Description: Cells are counted washed and resuspended in assay buffer (AB; HBSS, 20 mM HEPES, 0.2% BSA; 2 mM IBMX). […] Plate is pre-incubated 45 minutes at RT. Subsequently, 2.5 microliters of PGE2 (final conc. 6 nM) are transferred into the assay plate. Plate is incubated 30 minutes at RT. […] For each compound concentration the percentage of cAMP compared to DMSO control value as average ±STDEV (each concentration is measured in duplicate) is calculated.

Sequence of Prostaglandin E2 receptor EP2 subtype (P43116 whole entry): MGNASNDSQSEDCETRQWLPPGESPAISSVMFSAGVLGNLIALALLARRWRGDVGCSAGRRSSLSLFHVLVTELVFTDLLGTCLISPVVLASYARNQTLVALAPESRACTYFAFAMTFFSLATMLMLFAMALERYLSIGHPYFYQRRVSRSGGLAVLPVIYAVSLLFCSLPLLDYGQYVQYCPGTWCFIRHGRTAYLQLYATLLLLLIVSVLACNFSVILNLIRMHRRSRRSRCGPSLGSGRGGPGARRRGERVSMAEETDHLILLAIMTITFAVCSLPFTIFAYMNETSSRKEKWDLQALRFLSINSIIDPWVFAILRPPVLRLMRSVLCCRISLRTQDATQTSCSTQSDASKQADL

IC50 [1] [nM] | IC50 [2] [nM] | Compound
135 | 112 | CCOc1cc2c(cc1CCNc1cc(-c3cc(F)c(CC(=O)O)c(OCC)c3)ncn1)OCCO2 [US11839613, Example 403]
27 | 71 | CCOc1cc(-c2cc(NCCc3cc4ccsc4c(F)c3OC)ncn2)ccc1C(=O)O [US11839613, Example 404]
7 | 18 | COc1c(CCNc2cc(-c3ccc(C(=O)O)c(SC)c3)ncn2)cc2ccsc2c1F [US11839613, Example 405]
220 | 101 | CCOc1cc(-c2cc(NCCc3cc4ccsc4c(F)c3OC)ncn2)ccc1CC(=O)O [US11839613, Example 406]
126 | 20 | CCCc1cc(-c2cc(NCCc3c(OC)cc4c(c3F)OCCO4)ncn2)ccc1CC(=O)O [US11839613, Example 408]
486 | 87 | CC(C)Cc1cc(-c2cc(NCCc3ccc4sccc4c3F)ncn2)ccc1CC(=O)O [US11839613, Example 409]
665 | 170 | COc1c(CCNc2cc(-c3ccc(CC(=O)O)c(CC(C)C)c3)ncn2)cc2ccsc2c1F [US11839613, Example 410]
57 | 79 | CCOc1cc2c(cc1CCNc1cc(-c3ccc(CC(=O)O)c(CC(C)C)c3)ncn1)OCCO2 [US11839613, Example 412]
119 | 38 | CC(C)Cc1cc(-c2cc(NCCc3ccc4sccc4c3F)ncn2)ccc1C(=O)O [US11839613, Example 413]
505 | 88 | CC(C)Cc1cc(-c2cc(NCCc3cc(F)c4sccc4c3)ncn2)ccc1C(=O)O [US11839613, Example 414]
106 | 57 | COc1c(CCNc2cc(-c3ccc(C(=O)O)c(CC(C)C)c3)ncn2)cc2ccsc2c1F [US11839613, Example 415]
31 | 240 | CCOc1cc2c(cc1CCNc1cc(-c3ccc(C(=O)O)c(CC(C)C)c3)ncn1)OCCO2 [US11839613, Example 417]
247 | 27 | CCOc1cc(-c2cc(NCCc3ccc4sccc4c3F)ncn2)ccc1OCCC(=O)O [US11839613, Example 421]
492 | 18 | CCOc1cc(-c2cc(NCCc3cc(F)c4sccc4c3)ncn2)ccc1OCCC(=O)O [US11839613, Example 422]
230 | 6 | CCOc1cc(-c2cc(NCCc3c(OC)cc4ccccc4c3C)ncn2)ccc1OCCC(=O)O [US11839613, Example 423]
782 | 89 | CC(C)Oc1cc(-c2cc(NCCc3ccc4sccc4c3F)ncn2)ccc1CC(=O)O [US11839613, Example 424]
226 | 356 | CCOc1cc2c(cc1CCNc1cc(-c3ccc(CC(=O)O)c(OC(C)C)c3)ncn1)OCCO2 [US11839613, Example 425]

IC50 [1] [nM] | IC50 [2] [nM] | Compound
66 | 38 | CSc1cc(-c2cc(NCCc3ccc4scc(Cl)c4c3)ncn2)ccc1C(=O)O [US11839613, Example 429]
185 | 40 | O=C(O)c1ccc(-c2cc(NCCc3ccc4scc(Cl)c4c3)ncn2)cc1OC1CCC1 [US11839613, Example 430]
460 | 43 | CCOc1cc(-c2cc(NCCc3ccc4scc(Cl)c4c3)ncn2)ccc1CC(=O)O [US11839613, Example 431]
10 | 72 | COc1cc2c(c(C)c1CCNc1cc(-c3ccc(C(=O)O)c(OC(C)C)c3)ncn1)OCCO2 [US11839613, Example 432]
57 | 13 | CCOc1cc(-c2cc(NCCc3cc4c(cc3OC(F)F)OCCO4)ncn2)sc1C(=O)O [US11839613, Example 433]
227 | 37 | COc1cc(-c2cc(NCCc3ccc4sccc4c3F)ncn2)ccc1OCCC(=O)O [US11839613, Example 437]
708 | 29 | COc1cc(-c2cc(NCCc3cc(F)c4sccc4c3)ncn2)ccc1OCCC(=O)O [US11839613, Example 438]
33 | 139 | C#Cc1cc2c(cc1CCNc1cc(-c3ccc(C(=O)O)c(OCC)c3)ncn1)OCCO2 [US11839613, Example 439]
25 | 65 | C#Cc1cc2c(cc1CCNc1cc(-c3ccc(CC(=O)O)c(CCC)c3)ncn1)OCCO2 [US11839613, Example 440]
21 | 31 | COc1cc2c(c(C)c1CCNc1cc(-c3ccc(CC(=O)O)c(OC(F)F)c3)ncn1)OCCO2 [US11839613, Example 441]
549 | 43 | COc1cc2ccccc2c(C)c1CCNc1cc(-c2ccc(CC(=O)O)c(OC(F)F)c2)ncn1 [US11839613, Example 443]
22 | 80 | CCc1cc(-c2cc(NCCc3c(OC)cc4c(c3C)OCCO4)ncn2)ccc1CC(=O)O [US11839613, Example 444]
525 | 104 | CCc1cc(-c2cc(NCCc3c(OC)cc4ccccc4c3C)ncn2)ccc1CC(=O)O [US11839613, Example 445]
160 | 98 | CCc1cc(-c2cc(NCCc3c(OC)cc4ccccc4c3C)ncn2)ccc1C(=O)O [US11839613, Example 446]
55 | 26 | COc1cc2ccccc2c(C)c1CCNc1cc(-c2ccc(C(=O)O)c(OC3CC3)c2)ncn1 [US11839613, Example 448]
131 | 21 | O=C(O)c1ccc(-c2cc(NCCc3cc(F)c4sccc4c3)ncn2)cc1OC1CC1 [US11839613, Example 449]
165 | 80 | COc1cc2c(cc1CCNc1cc(-c3ccc(CC(=O)O)c(OC(F)(F)F)c3)ncn1)OCCO2 [US11839613, Example 450]

Compound | IC50 [1] [nM] | IC50 [2] [nM]
CCOc1cc(-c2cc(NCCc3c(OC)cc4c(c3F)OCCO4)ncn2)ccc1C(=O)O [US11839613, Example 435] | 28 | 80
